Key:
“WVC” Fuji Apples = conditions: for Mean Fruit Area per Limb: East Wenatchee, airblast spray at bloom; for Mean Fruit per 100 Clusters: fruit set
Protocol: A first field trial to test the effects of calcium chloride as a bloom thinning agent was performed in an orchard located in East Wenatchee, Washington, by the Washington Tree Fruit Research Commission on a commercial block of a Fuji apple cultivar of the variety “WVC.” Two areas of the block's apples were each treated with two alternative chemical thinning compounds. Calcium chloride was used in the first area. […] A third area of the apple block was utilized as a control group and treated with water. The treatments were all performed with conventional test methodologies and procedures.
Other than the application of the thinning compounds, all three blocks were managed without differentiation. All treatments were applied utilizing standard airblast sprayers and spreader-stickers as appropriate. The experiments were in a randomized complete block design with 2 to 4 replications. […] Results of this trial are listed in TABLE 1 and shown in the graphs of FIGS. 1 and 3.

[1] = tested on: “Lutz” Red Delicious Apples; conditions: for Mean Fruit Area per Limb: Azwell; for Mean Fruit per 100 Clusters: fruit set
Protocol: A second field trial to test the effects of calcium chloride as a bloom thinning agent was performed at an orchard located in Azwell, Washington, by the Washington Tree Fruit Research Commission on a commercial block of a Red Delicious apple cultivar of the variety “Lutz.” Three areas of the block's apples were each treated with one of three alternative chemical thinning compounds. […] Calcium chloride was used in the second area and “Crocker's” lime and sulfur was used in the third area. A fourth area of the apple block was utilized as a control group and treated with water as a control. The treatments were all performed with conventional test methodologies and procedures. Other than the application of the thinning compounds, all four blocks were managed without differentiation.

apples = assay: Overall observations of both field trials (damage, thinning, fruit L/D); type: in vivo, apple
Protocol: A series of field trials comparing the calcium chloride composition of the present invention to other alternative chemical thinners were performed to verify efficacy as a bloom thinner. The trials followed labeling recommendations and best management practices for all applications. Two of these trials are discussed as follows, but are not intended to specifically limit the invention: […]

Molecule	% Flower Clusters Blanked (“WVC” Fuji Apples) [%]	% Flower Clusters Doubled (“WVC” Fuji Apples) [%]	% Flower Clusters Singled (“WVC” Fuji Apples) [%]	% Flower Clusters Tripled (“WVC” Fuji Apples) [%]	% Flower Clusters w/4+ Fruit (“WVC” Fuji Apples) [%]	Mean Fruit Area per Limb (“WVC” Fuji Apples) [cm^2]	Mean Fruit per 100 Clusters (“WVC” Fuji Apples)	% Flower Clusters Blanked [1] [%]	% Flower Clusters Doubled [1] [%]	% Flower Clusters Singled [1] [%]	% Flower Clusters Tripled [1] [%]	% Flower Clusters w/4+ Fruit [1] [%]	Mean Fruit Area per Limb [1] [cm^2]	Mean Fruit per 100 Clusters [1]	impact on average fruit length over diameter (L/D) ratio (apples; harvested fruit)	difference in bloom thinning between treatments (apples; with feedback on hand thinning time per tree, ATS versus calcium chloride)
[Ca+2].[Cl-].[Cl-] [CaCl, calcium chloride]	40.0	12.5	45.5	2.0	0.1	5.0	79	41.7	12.7	44.4	1.0	0.2	2.6	73	minimally impacted	no consistent, significant differences between ATS and calcium chloride
ammonium thiosulfate [ATS, reference compound]	38.2	11.9	47.4	1.9	0.7	5.8	84	47.0	12.8	38.8	1.5	0.0	2.7	69	–	–

Reference: patent US6440901B1, “Calcium chloride fruit blossom thinning agent” (priority 2000, dated 2002)
